Assay results: US20120245137A1 (Zalicus Pharmaceuticals Ltd., priority 2009, published 2012)
Like-named read-outs stand apart in the source and are kept apart here.

Legend:
Format in all cases: cell-based
[1] = molecular target: N-type calcium channel subunits (α1B, α2δ, and β3a) (Homo sapiens, UniProt Q00975); test: Block of Cav2.2 channel, whole cell voltage clamp, manual and PatchXpress; settings: Table 5; table follows Assay Example 3 (whole cell voltage clamp / PatchXpress); assay not given
Protocol: Cells are grown either on poly-D-lysine coated coverglass (manual EP) or in TIS culture plates (PatchXpress). For the PatchExpress, cells are released from the flask using trypsin. In both cases, the […] solution is (in mM): 130 […], 10 EGTA, 10 HEPES, 2 MgCl2, 3 MgATP, pH 7.3 with CsOH.
Microelectrodes are fabricated from borosilicate glass and fire-polished. […] The reference electrode is a silver-silver chloride pellet. Voltages are not corrected for the liquid junction potential between the internal and external solutions and leak is subtracted using the P/n procedure. Solutions are applied to cells by bath perfusion via gravity. The experimental chamber volume is—0.2 mL. and the perfusion rate is 0.5-2 mL/min. Flow of suction through the chamber is maintained at all times. Measurement of current amplitudes is performed with […] software (HEKA Elektronik).
PatchXpress (Molecular Devices) is a 16-well whole-cell automated patch clamp device that operates asynchronously with fully integrated fluidics. […] Capacitance and series resistance compensation is automated. No correction for liquid junction potentials is employed. Leak is subtracted using the P/n procedure. Compounds are added to cells with a pipettor from a 96-well compound plate. Voltage protocols and the recording of membrane currents are performed using the PatchXpress software/hardware system. Current amplitudes are calculated with DataXpress software.
In both manual and automated patch clamp, cells are voltage clamped at […] or −90 m V and 50 ms pulses to +20 mV are applied every 15 sec (0.067 Hz). Compounds are added in escalating doses to measure % inhibition. Percent inhibition is calculated from the ratio of the curerent amplitude in the presence and absence of compound. When multiple doses are achieved per cell, IC50 values are calculated.

T-type calcium channel = T-type calcium channel (Homo sapiens, UniProt O95180); test: T-type channel blocking, FLIPR data (Table 6); settings: for CAv3.2 IC50 Ratio closed/inact.: CAv3.2, ratio closed/inactivated IC50
Text: Another method, high-throughput spectrophotometric assay, utilizes loading of the cell lines with a fluorescent dye sensitive to intracellular calcium concentration and subsequent examination of the effects of compounds on the ability of depolarization by potassium chloride or other means to alter intracellular calcium levels.

Human Cav 2.2 channels = Human Cav 2.2 channels (Homo sapiens, UniProt Q00975); test: Fluorescent assay for CaV2.2 channels using potassium depolarization (VIPR/FLIPR); settings: FLIPR data; for CAv2.2 IC50 Ratio closed/inact.: ratio closed/inactivated IC50
Text: Human Cav 2.2 channels were stably expressed in HEK293 cells along with alpha2-delta and beta subunits of voltage-gated calcium channels. An inwardly rectifying potassium channel (Kir2.3) was also expressed in these cells to allow more precise control of the cell membrane potential by extracellular potassium concentration. At low bath potassium concentration, the membrane potential is relatively negative, and is depolarized as the bath potassium concentration is raised. In this way, the bath potassium concentration can be used to regulate the voltage-dependent conformations of the channels. […] After the incubation period, Cav2.2 channel opening is triggered by addition of higher concentration of potassium (70 mM final concentration) to further depolarize the cell. The degree of state-dependent block can be estimated from the inhibitory potency of compounds after incubation in different potassium concentrations.
Calcium influx through Cav 2.2 channels is determined using a calcium sensitive fluorescent dye in combination with a fluorescent plate reader. Fluorescent changes were measured with either a VIPR (Aurora Instruments) or FLIPR (Molecular Devices) plate reader.
1. Seed cells in Poly-D-Lysine Coated 96 or 384-well plate and keep in a 3rC-IO % C02 incubator overnight.
2. Remove media, wash cells with 0.2 mL (96-well plate) or 0.05 mL (384-well plate) Dulbecco's Phosphate Buffered Saline (D-PBS) with calcium & magnesium (Invitrogen; 14040).
3. Add 0.1 mL (96-well plate) or 0.05 mL (384-well plate) of 4˜M fluor-4 (Molecular Probes; F-14202) and 0.02% Pluronic acid (Molecular Probes; P-3(00) prepared in D-PBS with calcium & magnesium (Invitrogen; 14040) supplemented with 10 mM Glucose & 10 mM HepeslNaOH; pH 7.4.
4. Incubate in the dark at 25° C. for 60-70 min.
5. Remove dye, wash cells with 0.1 mL (96-well plate) or 0.06 mL (384-well plate) of 4, 12, 25, or 30 mM Potassium Pre-polarization Buffer (PPB).
6. Add 0.1 mL (96-well plate) or 0.03 mL (384-well plate) of 4, 12, 25, 30 mM PPB with or without test compound.
7. Incubate in the dark at 25° C. for 30 min
8. Read cell plate on VIPR instrument, Excitation=480 nm, Emission=535 nm.
9. With VIPR continuously reading, add 0.1 mL (96-well plate) or 0.03 mL (384-well plate) of Depolarization Buffer (DB), which is 2× the final assay concentration, to the cell plate.

CAv1.2 = CAv1.2 (Homo sapiens, UniProt Q13936); test: FLIPR data, CAv1.2 channel blocking (Table 6)
[2] = CAv3.2, inactivated state, read-out: CAv3.2 IC50 Inact.
[3] = closed state, read-out: CAv2.2 IC50 Closed
[4] = inactivated state, read-out: CAv2.2 IC50 Inact.
[5] = closed state, read-out: CAv1.2 IC50 Closed
[6] = inactivated state, read-out: CAv1.2 IC50 Inact.
[7] = CAv3.2, closed state, read-out: CAv3.2 IC50 Closed

CAv1.2, sequence (Q13936 whole entry): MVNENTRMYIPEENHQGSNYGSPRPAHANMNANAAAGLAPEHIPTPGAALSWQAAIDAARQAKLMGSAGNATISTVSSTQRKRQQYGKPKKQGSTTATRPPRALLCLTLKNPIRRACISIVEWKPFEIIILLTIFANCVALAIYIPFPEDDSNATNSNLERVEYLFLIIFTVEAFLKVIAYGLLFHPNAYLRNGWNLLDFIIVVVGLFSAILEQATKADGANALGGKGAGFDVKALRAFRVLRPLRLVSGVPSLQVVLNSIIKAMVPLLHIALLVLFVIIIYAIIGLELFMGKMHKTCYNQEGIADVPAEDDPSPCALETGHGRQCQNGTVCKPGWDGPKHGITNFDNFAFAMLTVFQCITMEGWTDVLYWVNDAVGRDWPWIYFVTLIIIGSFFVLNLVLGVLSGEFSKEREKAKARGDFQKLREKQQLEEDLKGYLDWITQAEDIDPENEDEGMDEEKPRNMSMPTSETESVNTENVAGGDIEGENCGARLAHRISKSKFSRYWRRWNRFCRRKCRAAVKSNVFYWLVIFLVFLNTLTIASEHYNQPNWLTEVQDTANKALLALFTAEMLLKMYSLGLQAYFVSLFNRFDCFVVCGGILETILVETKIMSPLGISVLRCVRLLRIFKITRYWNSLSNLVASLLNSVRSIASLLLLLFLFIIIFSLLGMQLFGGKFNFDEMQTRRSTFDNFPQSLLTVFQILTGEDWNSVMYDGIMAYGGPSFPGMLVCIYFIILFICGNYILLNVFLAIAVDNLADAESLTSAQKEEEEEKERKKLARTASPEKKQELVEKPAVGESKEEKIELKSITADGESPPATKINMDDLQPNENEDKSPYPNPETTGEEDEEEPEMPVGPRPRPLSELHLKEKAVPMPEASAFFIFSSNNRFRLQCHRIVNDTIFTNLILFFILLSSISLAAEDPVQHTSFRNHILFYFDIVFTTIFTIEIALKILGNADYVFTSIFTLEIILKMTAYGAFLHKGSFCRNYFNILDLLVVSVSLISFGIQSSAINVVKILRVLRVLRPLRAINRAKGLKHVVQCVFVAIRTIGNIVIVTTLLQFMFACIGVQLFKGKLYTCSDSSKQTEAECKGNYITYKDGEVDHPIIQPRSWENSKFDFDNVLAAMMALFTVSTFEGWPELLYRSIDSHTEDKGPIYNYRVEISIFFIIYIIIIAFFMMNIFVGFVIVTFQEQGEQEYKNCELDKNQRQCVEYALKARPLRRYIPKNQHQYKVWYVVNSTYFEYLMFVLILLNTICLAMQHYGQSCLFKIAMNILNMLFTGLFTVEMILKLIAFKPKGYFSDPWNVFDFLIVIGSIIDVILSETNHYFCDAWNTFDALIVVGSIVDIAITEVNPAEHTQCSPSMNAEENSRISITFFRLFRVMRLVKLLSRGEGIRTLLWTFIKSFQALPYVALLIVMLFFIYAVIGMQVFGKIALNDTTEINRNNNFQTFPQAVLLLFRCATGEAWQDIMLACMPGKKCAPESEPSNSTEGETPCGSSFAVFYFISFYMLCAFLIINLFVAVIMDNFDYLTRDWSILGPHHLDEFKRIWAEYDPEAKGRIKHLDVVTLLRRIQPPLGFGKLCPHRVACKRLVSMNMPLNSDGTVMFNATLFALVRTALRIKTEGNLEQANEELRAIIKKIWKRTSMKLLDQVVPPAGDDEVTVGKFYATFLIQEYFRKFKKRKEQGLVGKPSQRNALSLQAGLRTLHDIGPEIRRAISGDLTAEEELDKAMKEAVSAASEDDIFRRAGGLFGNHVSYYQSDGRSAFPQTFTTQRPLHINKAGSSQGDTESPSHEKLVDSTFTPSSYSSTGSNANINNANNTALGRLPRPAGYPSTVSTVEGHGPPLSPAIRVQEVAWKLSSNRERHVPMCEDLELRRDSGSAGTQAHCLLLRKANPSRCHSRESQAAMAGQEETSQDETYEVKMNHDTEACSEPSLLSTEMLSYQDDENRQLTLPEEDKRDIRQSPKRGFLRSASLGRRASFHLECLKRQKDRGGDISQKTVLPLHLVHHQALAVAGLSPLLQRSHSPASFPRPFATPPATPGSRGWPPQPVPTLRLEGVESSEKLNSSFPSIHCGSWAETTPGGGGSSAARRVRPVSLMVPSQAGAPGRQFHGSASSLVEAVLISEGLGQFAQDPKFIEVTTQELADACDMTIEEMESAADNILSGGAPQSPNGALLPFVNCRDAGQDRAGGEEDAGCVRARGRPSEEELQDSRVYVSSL
CAv1.2, sequence (P54289 25-1103 partner): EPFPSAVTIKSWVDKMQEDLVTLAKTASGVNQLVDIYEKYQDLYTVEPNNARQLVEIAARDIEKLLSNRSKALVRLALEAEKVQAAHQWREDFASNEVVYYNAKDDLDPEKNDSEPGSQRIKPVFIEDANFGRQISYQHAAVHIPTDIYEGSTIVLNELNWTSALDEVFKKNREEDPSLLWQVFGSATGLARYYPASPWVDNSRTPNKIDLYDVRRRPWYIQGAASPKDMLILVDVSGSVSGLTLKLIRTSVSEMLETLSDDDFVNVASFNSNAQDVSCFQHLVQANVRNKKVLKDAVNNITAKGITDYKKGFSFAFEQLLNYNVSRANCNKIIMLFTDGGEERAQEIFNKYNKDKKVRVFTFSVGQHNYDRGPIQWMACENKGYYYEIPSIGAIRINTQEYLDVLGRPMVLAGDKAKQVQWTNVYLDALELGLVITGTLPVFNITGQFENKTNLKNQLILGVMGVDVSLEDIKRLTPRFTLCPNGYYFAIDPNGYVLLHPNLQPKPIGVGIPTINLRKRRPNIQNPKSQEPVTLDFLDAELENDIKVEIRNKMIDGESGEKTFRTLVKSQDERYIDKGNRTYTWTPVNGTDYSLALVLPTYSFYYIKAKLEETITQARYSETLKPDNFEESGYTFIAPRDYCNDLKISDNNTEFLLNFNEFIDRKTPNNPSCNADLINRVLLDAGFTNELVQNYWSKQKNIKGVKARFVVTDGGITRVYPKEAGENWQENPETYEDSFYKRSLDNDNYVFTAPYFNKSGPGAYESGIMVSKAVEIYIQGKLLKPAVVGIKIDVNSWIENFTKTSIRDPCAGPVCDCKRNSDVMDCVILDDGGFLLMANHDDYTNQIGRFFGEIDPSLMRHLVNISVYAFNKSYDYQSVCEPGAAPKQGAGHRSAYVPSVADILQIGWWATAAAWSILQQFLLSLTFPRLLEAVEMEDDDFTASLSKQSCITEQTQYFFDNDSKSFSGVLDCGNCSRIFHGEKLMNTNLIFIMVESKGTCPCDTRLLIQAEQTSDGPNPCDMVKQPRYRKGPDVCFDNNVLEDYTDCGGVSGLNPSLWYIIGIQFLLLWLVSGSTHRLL
CAv1.2, sequence (Q08289 whole entry partner): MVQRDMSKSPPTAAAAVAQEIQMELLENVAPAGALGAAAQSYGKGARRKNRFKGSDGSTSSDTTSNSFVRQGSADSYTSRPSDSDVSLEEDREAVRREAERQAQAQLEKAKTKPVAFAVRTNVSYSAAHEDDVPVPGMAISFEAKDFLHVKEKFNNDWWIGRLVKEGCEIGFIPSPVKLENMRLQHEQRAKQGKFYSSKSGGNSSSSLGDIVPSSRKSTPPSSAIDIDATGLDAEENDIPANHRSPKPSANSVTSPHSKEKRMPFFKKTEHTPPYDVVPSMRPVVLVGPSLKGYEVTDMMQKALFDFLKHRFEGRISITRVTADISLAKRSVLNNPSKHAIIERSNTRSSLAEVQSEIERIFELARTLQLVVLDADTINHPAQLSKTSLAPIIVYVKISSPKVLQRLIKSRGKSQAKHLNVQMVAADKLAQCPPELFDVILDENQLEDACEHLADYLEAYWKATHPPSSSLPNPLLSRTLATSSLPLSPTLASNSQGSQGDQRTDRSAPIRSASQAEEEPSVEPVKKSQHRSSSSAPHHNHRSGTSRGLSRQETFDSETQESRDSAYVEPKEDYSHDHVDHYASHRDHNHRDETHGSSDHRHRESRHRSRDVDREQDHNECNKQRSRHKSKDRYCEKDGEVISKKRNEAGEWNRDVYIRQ

| Compound | IC50 [1] [nM] | IC50 (T-type calcium channel; [2]) [µM] | IC50 (Human Cav 2.2 channels; [3]) [µM] | IC50 (Human Cav 2.2 channels; [4]) [µM] | CAv2.2 IC50 Ratio closed/inact. (Human Cav 2.2 channels) | IC50 (CAv1.2; [5]) [µM] | IC50 (CAv1.2; [6]) [µM] | IC50 (T-type calcium channel; [7]) [µM] | CAv3.2 IC50 Ratio closed/inact. (T-type calcium channel) | CAv1.2 IC50 Ratio closed/inact. (CAv1.2; ratio closed/inactivated IC50) |
| --- | --- | --- | --- | --- | --- | --- | --- | --- | --- | --- |
| 2-(methylsulfonyl)-6-(trifluoromethyl)- N-(((1S,3S)-3- (3-(trifluoromethyl) phenylsulfonyl)cyclobutyl) methyl)nicotinamide [Compound 382] | 1710 | – | – | – | – | – | – | – | – | – |
| 2-chloro-6-(trifluoromethyl)-N- ((1R,4R)-4-(3- (tritluoromethyl)phenylsulfonyl) cyclohexyl)nicotinamide [Compound 187] | 7000 | – | – | – | – | – | – | – | – | – |
| 2-chloro-6-(trifluoromethyl)-N- ((1S,4S)-4-(3- (trifluoromethyl)phenylsulfonyl) cyclohexyl)nicotinamide [Compound 200] | 1020 | – | – | – | – | – | – | – | – | – |
| 2-fluoro-N-((1R,4R)-4-(3- (trifluoromethyl)phenylsulfonyl) cyclohexyl)isonicotinamide [Compound 188] | 5610 | – | – | – | – | – | – | – | – | – |
| 3-(methylsulfonyl)-5-(trifluoromethyl)- N-(((1S,3S)- 3-(3-(trifluoromethyl) phenylsulfonyl)cyclobutyl) methyl)picolinamide [Compound 388] | 1060 | – | – | – | – | – | – | – | – | – |
| 4,5-dichloro-N-((1R,4R)-4-(3- (trifluoromethyl)phenylsulfonyl) cyclohexyl)isothiazole-3- carboxamide [Compound 183] | 1990 | – | – | – | – | – | – | – | – | – |
| CNC1(CC(=O)N[C@H]2C[C@H](C(C)(C)S(=O)(=O)c3cc(F)cc(C(F)(F)F)c3)C2)CCCCC1 [Compound 659] | – | 10 | 9.71 | 1.93 | 5 | ≥ 10 | ≥ 10 | – | – | – |
| CNC1(CC(=O)N[C@H]2C[C@@H](C(C)(C)S(=O)(=O)c3cccc(OC(F)(F)F)c3)C2)CCCCC1 [Compound 661] | – | 10 | 8.03 | 1.53 | 5.2 | ≥ 10 | ≥ 10 | – | – | – |
| CNC1(CC(=O)N[C@H]2C[C@H](C(C)(C)S(=O)(=O)c3cccc(OC(F)(F)F)c3)C2)CCCCC1 [Compound 662] | – | 10 | 5.65 | 1.25 | 4.5 | ≥ 10 | ≥ 10 | – | – | – |
| O=C(NC[C@H]1C[C@H](S(=O)(=O)c2cccc(OC(F)(F)F)c2)C1)c1ccnc(C(F)(F)F)n1 [Compound 697] | – | 8.91 | 3.78 | 0.71 | 5.3 | ≥ 10 | ≥ 10 | ≥ 10 | 1.1 | – |
| O=C(NC[C@H]1C[C@H](S(=O)(=O)c2cccc(OC(F)(F)F)c2)C1)c1ccc(OCC(F)(F)F)nc1 [Compound 699] | – | – | 7.86 | – | 3.1 | ≥ 10 | – | ≥ 10 | 1 | – |
| CS(=O)(=O)c1cc(C(F)(F)F)cnc1C(=O)NC[C@H]1C[C@H](S(=O)(=O)c2cc(F)cc(C(F)(F)F)c2)C1 [Compound 701] | – | 10 | 10 | 2.21 | 4.5 | – | ≥ 10 | – | – | – |
| NC1(CC(=O)NC[C@H]2C[C@H](S(=O)(=O)c3cc(F)cc(C(F)(F)F)c3)C2)CCCCC1 [Compound 708] | – | 10 | 7.67 | 3.03 | 2.5 | ≥ 10 | ≥ 10 | – | – | – |
| N[C@H]1CCCCC1C(=O)NC[C@H]1C[C@H](S(=O)(=O)c2cccc(OC(F)(F)F)c2)C1 (some centres unmarked) [Compound 709] | – | 10 | 7.5 | 2.34 | 3.2 | ≥ 10 | – | ≥ 10 | 1 | – |
| N[C@H]1CCCC[C@@H]1C(=O)NC[C@H]1C[C@H](S(=O)(=O)c2cc(F)cc(C(F)(F)F)c2)C1 [Compound 712] | – | 10 | 10 | 6.02 | 1.7 | ≥ 10 | ≥ 10 | – | – | – |
| N[C@@H]1CCCC[C@H]1C(=O)NC[C@H]1C[C@H](S(=O)(=O)c2cccc(OC(F)(F)F)c2)C1 [Compound 714] | – | 10 | 5.77 | 2.29 | 2.5 | ≥ 10 | – | ≥ 10 | 1 | – |
| CS(=O)(=O)c1cc(Cl)ccc1C(=O)NC[C@H]1C[C@H](S(=O)(=O)c2cc(F)cc(C(F)(F)F)c2)C1 [Compound 715] | – | 7.51 | 10 | 1.38 | 7.2 | ≥ 10 | ≥ 10 | ≥ 10 | 1.3 | – |
| CC(C)(C[C@H]1C[C@H](NC(=O)c2ncc(C(F)(F)F)cc2S(C)(=O)=O)C1)S(=O)(=O)c1cccc(C(F)(F)F)c1 [Compound 717] | – | 9.98 | 8.63 | 0.49 | 17.6 | ≥ 10 | ≥ 10 | ≥ 10 | 1 | – |
| CC(C)(C[C@H]1C[C@H](NC(=O)CC2(N)CCCCC2)C1)S(=O)(=O)c1cccc(C(F)(F)F)c1 [Compound 726] | – | 10 | 2.77 | 0.9 | 3.1 | ≥ 10 | ≥ 10 | ≥ 10 | 1 | – |
| CC(C)(C[C@H]1C[C@H](NC(=O)[C@@H]2CCCC[C@@H]2N)C1)S(=O)(=O)c1cccc(C(F)(F)F)c1 [Compound 727] | – | 10 | 4.1 | 0.95 | 4.3 | – | ≥ 10 | – | – | – |
| CC(C)(C[C@H]1C[C@H](NC(=O)[C@@H]2CCCC[C@H]2N)C1)S(=O)(=O)c1cccc(C(F)(F)F)c1 [Compound 728] | – | 10 | 3.64 | 1.56 | 2.3 | ≥ 10 | – | – | – | – |
| CC(C)(C[C@H]1C[C@@H](NC(=O)c2ncc(C(F)(F)F)cc2S(C)(=O)=O)C1)S(=O)(=O)c1cccc(C(F)(F)F)c1 [Compound 730] | – | 10 | 9.1 | 0.46 | 19.8 | ≥ 10 | ≥ 10 | ≥ 10 | 1 | – |
| CC(C)(C[C@H]1C[C@@H](NC(=O)CC2(N)CCCCC2)C1)S(=O)(=O)c1cccc(C(F)(F)F)c1 [Compound 739] | – | 10 | 2.89 | 1 | 2.9 | 8.86 | ≥ 10 | ≥ 10 | 1 | 0.9 |
